# Test results as given in paper PMC8851638 (ACS Omega, 2022).
# Where “and” joins values, the source holds several entries; their conditions need not be identical. Equal entries are not always repeated.
# Legend:
# B. subtilis [1] = assay: Checkerboard combination assay with Ciprofloxacin; type: cell-based
# S. epidermidis [2] = assay: Checkerboard combination assay with Ciprofloxacin; type: cell-based, Staphylococcus epidermidis
# K. pneumoniae (MDR00244) = assay: MIC and MBC by broth microdilution; type: cell-based; conditions: ratio in parentheses
# K. pneumoniae [3] = assay: Checkerboard combination assay with Ciprofloxacin; type: cell-based
# S. aureus [4] = assay: Single-step resistance selection; type: cell-based, Staphylococcus aureus; conditions: 4 × MIC, 48 h
# S. aureus (MDR00231) [5] = assay: Agar well-diffusion antimicrobial sensitivity assay; type: cell-based, Staphylococcus aureus; conditions: Staphylococcus aureus, read-out: Inhibition Zone (IZ)
# E. coli [6] = assay: Single-step resistance selection; type: cell-based; conditions: 4 × MIC, 48 h
# A. baumannii [7] = assay: Checkerboard combination assay with Ciprofloxacin; type: cell-based
# E. coli DNA gyrase = E. coli DNA gyrase (Escherichia coli, UniProt P0AES4+P0AES6); assay: DNA gyrase inhibition; type: biochemical
# [8] = test system: C. albicans100 (MDR00100); assay: MIC and MFC by broth microdilution; type: cell-based, Candida albicans
# S. aureus (MDR00231) [9] = assay: MIC and MBC by broth microdilution; type: cell-based, Staphylococcus aureus
# [10] = test system: C. albicans100 (MDR00100); assay: Agar well-diffusion antimicrobial sensitivity assay; type: cell-based, Candida albicans; conditions: Candida albicans, read-out: Inhibition Zone (IZ)
# [11] = In vitro cytotoxicity on normal cell line; type: cell-based, green monkey; conditions: green monkey, Vero kidney cells
# [12] = test system: Vero: green monkey kidney; assay: In vitro cytotoxicity on normal cell line; type: cell-based
# K. pneumoniae [13] = assay: Single-step resistance selection; type: cell-based; conditions: 4 × MIC, 48 h
# [14] = test system: clinical pathogenic isolates; assay: Single-step resistance selection, whole panel; type: cell-based; conditions: 4 × MIC
# B. subtilis (MDR00423) = assay: MIC and MBC by broth microdilution; type: cell-based
# S. epidermidis [15] = assay: Single-step resistance selection; type: cell-based, Staphylococcus epidermidis; conditions: 4 × MIC, 48 h
# C. albicans100 [16] = assay: Checkerboard combination assay with Ketoconazole; type: cell-based, Candida albicans
# S. epidermidis biofilm = assay: Staphylococcus biofilm mass reduction; type: cell-based; conditions: at their MIC
# C. albicans200 [17] = assay: Single-step resistance selection; type: cell-based, Candida albicans; conditions: 4 × MIC, 48 h
# E. coli [18] = assay: Checkerboard combination assay with Ciprofloxacin; type: cell-based
# [19] = target: T1, dihydrofolate reductase (DHFR) (Homo sapiens, UniProt P00374); assay: DHFR inhibition; type: biochemical
# T1 sequence (P00374 1-187): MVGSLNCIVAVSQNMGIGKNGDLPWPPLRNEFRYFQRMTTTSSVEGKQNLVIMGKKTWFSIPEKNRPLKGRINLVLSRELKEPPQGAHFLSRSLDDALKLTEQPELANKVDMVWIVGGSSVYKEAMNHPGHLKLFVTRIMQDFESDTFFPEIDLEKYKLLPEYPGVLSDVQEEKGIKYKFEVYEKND
# A. baumannii (MDR00521) = assay: MIC and MBC by broth microdilution; type: cell-based
# [20] = test system: S. epidermidis (MDR00223); assay: Agar well-diffusion antimicrobial sensitivity assay; type: cell-based, Staphylococcus epidermidis; conditions: Staphylococcus epidermidis, read-out: Inhibition Zone (IZ)
# C. albicans100 [21] = assay: Single-step resistance selection; type: cell-based, Candida albicans; conditions: 4 × MIC, 48 h
# [22] = test system: S. epidermidis (MDR00223); assay: MIC and MBC by broth microdilution; type: cell-based, Staphylococcus epidermidis
# B. subtilis [23] = assay: Single-step resistance selection; type: cell-based; conditions: 4 × MIC, 48 h
# [24] = test system: BNL: mouse normal liver cells; assay: In vitro cytotoxicity on normal cell line; type: cell-based
# [25] = In vitro cytotoxicity on normal cell line; type: cell-based, mouse; conditions: mouse, BNL normal liver cells
# [26] = In vitro cytotoxicity on normal cell line; type: cell-based, rat; conditions: rat, H9C2 heart/myocardium cells
# [27] = test system: H9C2: rat heart/myocardium; assay: In vitro cytotoxicity on normal cell line; type: cell-based
# S. aureus biofilm = assay: Staphylococcus biofilm mass reduction; type: cell-based; conditions: at their MIC
# RBCs = assay: Hemolytic assay; type: cell-based; conditions: human RBCs; compounds 1.0 mg/mL; Triton X-100 0.1% v/v; 37 °C, 35 min
# E. coli (MDR00501) [28] = assay: MIC and MBC by broth microdilution; type: cell-based
# A. baumannii [29] = assay: Single-step resistance selection; type: cell-based; conditions: 4 × MIC, 48 h
# [30] = test system: C. albicans200 (MDR00200); assay: MIC and MFC by broth microdilution; type: cell-based, Candida albicans
# S. aureus [31] = assay: Checkerboard combination assay with Ciprofloxacin; type: cell-based, Staphylococcus aureus
# E. coli (MDR00501) [32] = assay: Agar well-diffusion antimicrobial sensitivity assay; type: cell-based; conditions: Escherichia coli, read-out: Inhibition Zone (IZ)
# [33] = test system: C. albicans200 (MDR00200); assay: as above; type: cell-based, Candida albicans; conditions: Candida albicans, read-out: Inhibition Zone (IZ)
# C. albicans200 [34] = assay: Checkerboard combination assay with Ketoconazole; type: cell-based, Candida albicans
# E. coli DNA gyrase, sequence (P0AES4 whole entry, one chain of several): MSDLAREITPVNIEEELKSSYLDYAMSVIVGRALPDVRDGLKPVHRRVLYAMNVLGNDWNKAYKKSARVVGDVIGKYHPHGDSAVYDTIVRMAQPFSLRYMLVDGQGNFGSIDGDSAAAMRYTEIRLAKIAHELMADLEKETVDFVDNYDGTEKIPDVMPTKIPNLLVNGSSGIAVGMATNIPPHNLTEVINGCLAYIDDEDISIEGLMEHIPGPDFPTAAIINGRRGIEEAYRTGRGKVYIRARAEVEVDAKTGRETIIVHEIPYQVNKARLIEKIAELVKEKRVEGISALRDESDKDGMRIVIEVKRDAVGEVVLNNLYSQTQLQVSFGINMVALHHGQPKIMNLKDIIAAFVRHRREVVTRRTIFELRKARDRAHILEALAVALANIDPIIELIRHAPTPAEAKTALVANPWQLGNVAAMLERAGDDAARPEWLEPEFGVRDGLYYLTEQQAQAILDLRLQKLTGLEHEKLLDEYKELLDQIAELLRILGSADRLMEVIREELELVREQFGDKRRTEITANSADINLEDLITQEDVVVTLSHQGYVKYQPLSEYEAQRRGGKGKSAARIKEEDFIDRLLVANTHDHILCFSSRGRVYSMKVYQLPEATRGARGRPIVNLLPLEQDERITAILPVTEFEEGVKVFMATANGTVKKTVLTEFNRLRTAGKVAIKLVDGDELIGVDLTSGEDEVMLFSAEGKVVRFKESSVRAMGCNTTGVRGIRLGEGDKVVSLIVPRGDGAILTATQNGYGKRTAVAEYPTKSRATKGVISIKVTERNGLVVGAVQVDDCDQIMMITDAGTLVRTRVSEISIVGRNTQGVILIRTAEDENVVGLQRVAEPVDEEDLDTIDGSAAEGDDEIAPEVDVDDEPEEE
structure (smiles),measurement,setting,value
"N#CC(=Cc1ccccc1O)C1=NC(=O)C(=Cc2cn(-c3ccccc3)nc2-c2ccccc2)S1 [Compound 5a, 3-(2-Hydroxyphenyl)-2-(5-((1,3-diphenyl-1H-pyrazol-4-yl)methylene)-4-oxo-4,5-dihydro-thiazol-2-yl)acrylonitrile]",combination effect,B. subtilis [1],S (S: synergism)
same,fractional inhibitory concentration index (FICI),B. subtilis [1],0.25
same,combination effect,S. epidermidis [2],S (S: synergism)
same,fractional inhibitory concentration index (FICI),S. epidermidis [2],0.5
same,MBC/MIC,K. pneumoniae (MDR00244),1
same,combination effect,K. pneumoniae [3],S (S: synergism)
same,fractional inhibitory concentration index (FICI),K. pneumoniae [3],0.25
same,Single-step resistance frequency (mutation frequency),S. aureus [4],3.22 × 10^–7
same,zone of inhibition at 100000 µg/mL,S. aureus (MDR00231) [5],29 ± 0.22 mm
same,Single-step resistance frequency (mutation frequency),E. coli [6],2.21 × 10^–7
same,combination effect,A. baumannii [7],S (S: synergism)
same,fractional inhibitory concentration index (FICI),A. baumannii [7],0.5
same,IC50,E. coli DNA gyrase,22.1 ± 0.3 µM
same,MIC (mean ± SEM),"[8]; C. albicans100, broth microdilution",0.43 ± 0.5 µg/mL
same,MFC/MIC,"[8]; C. albicans100, ratio in parentheses",0.5
same,MIC,"[8]; Candida albicans, read-out: MIC (mean ± SEM), C. albicans100, broth microdilution",0.43 µg/mL
same,MBC/MIC,"S. aureus (MDR00231) [9]; S. aureus, ratio in parentheses",1
same,MIC,"S. aureus (MDR00231) [9]; Staphylococcus aureus, read-out: MIC (mean ± SEM), S. aureus, broth microdilution",0.48 ± 0.1 µg/mL
same,zone of inhibition at 100000 µg/mL,[10],28 ± 0.4 mm
same,IC50 at 72 h,[11],80.2 ± 1.79 µM
same,Selectivity index against DHFR,[12]; IC50 of Vero / IC50 of DHFR,72.28
same,Selectivity index against DNA gyrase,[12]; IC50 of Vero / IC50 of DNA gyrase,3.62
same,Single-step resistance frequency (mutation frequency),K. pneumoniae [13],1.90 × 10^–8
same,"mutation frequency, range over panel",[14],2.21 × 10^–7 to 2.71 × 10^–8
same,MBC/MIC,"B. subtilis (MDR00423); B. subtilis, ratio in parentheses",1
same,MIC,"B. subtilis (MDR00423); Bacillus subtilis, read-out: MIC (mean ± SEM), B. subtilis, broth microdilution",0.49 ± 0.2 µg/mL
same,Single-step resistance frequency (mutation frequency),S. epidermidis [15],2.71 × 10^–8
same,combination effect,C. albicans100 [16],S (S: synergism)
same,fractional inhibitory concentration index (FICI),C. albicans100 [16],0.25
same,reduction of biofilm formation,S. epidermidis biofilm,79.5%
same,Single-step resistance frequency (mutation frequency),C. albicans200 [17],4.40 × 10^–7
same,combination effect,E. coli [18],S (S: synergism)
same,fractional inhibitory concentration index (FICI),E. coli [18],0.5
same,IC50,[19],1.11 ± 0.15 µM
same,MIC (mean ± SEM),A. baumannii (MDR00521); broth microdilution,0.48 ± 0.5 µg/mL
same,MBC/MIC,A. baumannii (MDR00521); ratio in parentheses,0.5
same,zone of inhibition at 100000 µg/mL,[20],27 ± 0.24 mm
same,Single-step resistance frequency (mutation frequency),C. albicans100 [21],2.10 × 10^–8
same,MBC/MIC,"[22]; S. epidermidis, ratio in parentheses",0.5
same,MIC,"[22]; Staphylococcus epidermidis, read-out: MIC (mean ± SEM), S. epidermidis, broth microdilution",0.49 ± 0.4 µg/mL
same,Single-step resistance frequency (mutation frequency),B. subtilis [23],2.93 × 10^–7
same,Selectivity index against DHFR,[24]; IC50 of BNL / IC50 of DHFR,93.23
same,Selectivity index against DNA gyrase,[24]; IC50 of BNL / IC50 of DNA gyrase,4.67
same,IC50 at 72 h,[25],103 ± 1.44 µM
same,IC50 at 72 h,[26],99.2 ± 2.29 µM
same,Selectivity index against DHFR,[27]; IC50 of H9C2 / IC50 of DHFR,89.37
same,Selectivity index against DNA gyrase,[27]; IC50 of H9C2 / IC50 of DNA gyrase,4.48
same,reduction of biofilm formation,S. aureus biofilm,89.1%
same,%lysis of RBCs,RBCs,9.67% and 9.67 ± 0.31%
same,MIC (mean ± SEM),"E. coli (MDR00501) [28]; E. coli, broth microdilution",0.46 ± 0.3 µg/mL
same,MBC/MIC,"E. coli (MDR00501) [28]; E. coli, ratio in parentheses",1
same,MIC,"E. coli (MDR00501) [28]; Escherichia coli, read-out: MIC (mean ± SEM), E. coli, broth microdilution",0.46 µg/mL
same,Single-step resistance frequency (mutation frequency),A. baumannii [29],1.80 × 10^–8
same,MIC (mean ± SEM),"[30]; C. albicans200, broth microdilution",0.24 ± 0.4 µg/mL
same,MFC/MIC,"[30]; C. albicans200, ratio in parentheses",1
same,MIC,"[30]; Candida albicans, read-out: MIC (mean ± SEM), C. albicans200, broth microdilution",0.24 µg/mL
same,combination effect,S. aureus [31],S (S: synergism)
same,fractional inhibitory concentration index (FICI),S. aureus [31],0.5
same,zone of inhibition at 100000 µg/mL,E. coli (MDR00501) [32],28 ± 0.14 mm
same,zone of inhibition at 100000 µg/mL,[33],30 ± 0.6 mm
same,combination effect,C. albicans200 [34],S (S: synergism)
same,fractional inhibitory concentration index (FICI),C. albicans200 [34],0.5
